# Measurements: article PMC12090182, “Repurposing of the RIPK1-Selective Benzo[1,4]oxazepin-4-one Scaffold for the Development of a Type III LIMK1/2 Inhibitor” (ACS Chemical Biology, 2025)
# Like-named read-outs stand apart in the source and are kept apart here.
# What was measured:
# Assay in all cases: biochemical
# Assay type in all cases: binding
# [1] = molecular target: 468 kinases including some pathogenic mutants (Homo sapiens, UniProt Q9NYL2); settings: ZAK (Entrez ZAK), 1000 nM; read-out: Percent Control
# [2] = molecular target: 468 kinases including some pathogenic mutants (Homo sapiens, UniProt Q15418); settings: 1000 nM, read-out: Percent Control
# Chain of 468 kinases including some pathogenic mutants (Homo sapiens, UniProt Q15418) (Q15418 whole entry, change not shown): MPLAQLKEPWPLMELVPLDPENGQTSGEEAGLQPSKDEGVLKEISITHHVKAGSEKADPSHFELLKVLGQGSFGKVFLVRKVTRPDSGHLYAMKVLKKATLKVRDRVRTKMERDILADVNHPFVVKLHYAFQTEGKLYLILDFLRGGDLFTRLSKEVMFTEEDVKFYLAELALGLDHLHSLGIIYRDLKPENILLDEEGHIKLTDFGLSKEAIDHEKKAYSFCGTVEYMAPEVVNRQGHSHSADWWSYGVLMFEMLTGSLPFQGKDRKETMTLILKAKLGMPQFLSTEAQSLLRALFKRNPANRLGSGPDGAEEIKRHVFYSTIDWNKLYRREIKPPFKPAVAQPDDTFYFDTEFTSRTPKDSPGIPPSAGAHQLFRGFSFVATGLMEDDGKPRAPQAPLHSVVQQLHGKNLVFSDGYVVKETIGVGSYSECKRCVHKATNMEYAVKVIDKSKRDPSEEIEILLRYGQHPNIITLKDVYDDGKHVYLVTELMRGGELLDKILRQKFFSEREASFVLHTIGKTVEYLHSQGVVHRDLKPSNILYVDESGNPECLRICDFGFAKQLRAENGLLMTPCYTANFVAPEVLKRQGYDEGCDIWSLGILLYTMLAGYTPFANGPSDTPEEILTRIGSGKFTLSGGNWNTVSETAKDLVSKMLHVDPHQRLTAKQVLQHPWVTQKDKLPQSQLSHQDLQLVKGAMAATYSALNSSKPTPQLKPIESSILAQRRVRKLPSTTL
# [3] = molecular target: 468 kinases including some pathogenic mutants (Homo sapiens, UniProt P33981); settings: TTK (Entrez TTK), 100 nM; read-out: Percent Control
# [4] = molecular target: 468 kinases including some pathogenic mutants (Homo sapiens, UniProt Q8IY84); settings: NIM1 (Entrez MGC42105), 1000 nM; read-out: Percent Control
# [5] = molecular target: 468 kinases including some pathogenic mutants (Homo sapiens, UniProt P32298); settings: GRK4 (Entrez GRK4), 100 nM; read-out: Percent Control
# [6] = molecular target: 468 kinases including some pathogenic mutants (Homo sapiens, UniProt Q96J92); settings: WNK4 (Entrez WNK4), 1000 nM; read-out: Percent Control
# [7] = molecular target: 468 kinases including some pathogenic mutants (Homo sapiens, UniProt Q05655); settings: PRKCD (Entrez PRKCD), 1000 nM; read-out: Percent Control
# [8] = molecular target: 468 kinases including some pathogenic mutants (Homo sapiens, UniProt Q5S007, G2019S); settings: read-out: Percent Control
# [9] = molecular target: 468 kinases including some pathogenic mutants (Homo sapiens, UniProt Q9NY57); settings: YANK2 (Entrez STK32B), 1000 nM; read-out: Percent Control
# [10] = molecular target: 468 kinases including some pathogenic mutants (Homo sapiens, UniProt P42336, E542K); settings: read-out: Percent Control
# [11] = molecular target: 468 kinases including some pathogenic mutants (Homo sapiens, UniProt Q15303); settings: ERBB4 (Entrez ERBB4), 100 nM; read-out: Percent Control
# Chain of 468 kinases including some pathogenic mutants (Homo sapiens, UniProt Q15303) (Q15303 26-1308, change not shown): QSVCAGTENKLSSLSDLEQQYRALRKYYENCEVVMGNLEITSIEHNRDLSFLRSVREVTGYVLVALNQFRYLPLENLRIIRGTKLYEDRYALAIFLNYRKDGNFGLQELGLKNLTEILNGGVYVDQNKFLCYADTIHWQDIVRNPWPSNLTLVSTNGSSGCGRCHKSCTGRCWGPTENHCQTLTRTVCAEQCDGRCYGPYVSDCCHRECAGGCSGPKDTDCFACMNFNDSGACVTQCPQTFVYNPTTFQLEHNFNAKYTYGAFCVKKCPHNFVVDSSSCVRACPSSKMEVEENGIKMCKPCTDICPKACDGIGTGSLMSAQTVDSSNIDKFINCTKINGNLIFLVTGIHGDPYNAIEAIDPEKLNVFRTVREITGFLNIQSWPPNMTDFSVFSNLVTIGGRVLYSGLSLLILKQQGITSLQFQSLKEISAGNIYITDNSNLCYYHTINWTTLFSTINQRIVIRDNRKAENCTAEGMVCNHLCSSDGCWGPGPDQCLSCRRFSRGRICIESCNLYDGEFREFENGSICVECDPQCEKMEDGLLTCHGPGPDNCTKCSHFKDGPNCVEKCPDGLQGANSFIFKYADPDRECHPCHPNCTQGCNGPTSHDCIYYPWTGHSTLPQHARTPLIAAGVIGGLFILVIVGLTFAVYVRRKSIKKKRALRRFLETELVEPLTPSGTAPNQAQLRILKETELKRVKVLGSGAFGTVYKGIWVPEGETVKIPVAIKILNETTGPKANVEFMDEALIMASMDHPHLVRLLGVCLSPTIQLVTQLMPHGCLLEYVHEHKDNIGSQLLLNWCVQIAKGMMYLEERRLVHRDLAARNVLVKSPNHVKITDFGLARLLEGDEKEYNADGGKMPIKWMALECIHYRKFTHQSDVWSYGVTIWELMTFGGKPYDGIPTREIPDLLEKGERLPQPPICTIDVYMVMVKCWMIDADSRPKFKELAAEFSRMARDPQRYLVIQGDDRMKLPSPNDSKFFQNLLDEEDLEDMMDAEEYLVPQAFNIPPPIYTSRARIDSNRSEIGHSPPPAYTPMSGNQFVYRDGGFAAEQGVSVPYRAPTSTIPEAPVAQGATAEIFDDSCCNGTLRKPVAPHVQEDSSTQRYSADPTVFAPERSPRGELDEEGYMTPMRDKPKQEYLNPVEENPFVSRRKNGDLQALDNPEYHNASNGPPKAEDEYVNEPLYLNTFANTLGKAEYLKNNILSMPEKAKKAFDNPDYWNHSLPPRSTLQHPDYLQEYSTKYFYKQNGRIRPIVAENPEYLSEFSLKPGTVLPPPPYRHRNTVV
# [12] = molecular target: 468 kinases including some pathogenic mutants (Homo sapiens, UniProt P36897); settings: TGFBR1 (Entrez TGFBR1), 1000 nM; read-out: Percent Control
# [13] = molecular target: 468 kinases including some pathogenic mutants (Homo sapiens, UniProt Q9HCP0); settings: CSNK1G1 (Entrez CSNK1G1), 100 nM; read-out: Percent Control
# Chain of 468 kinases including some pathogenic mutants (Homo sapiens, UniProt Q9HCP0) (Q9HCP0 whole entry, change not shown): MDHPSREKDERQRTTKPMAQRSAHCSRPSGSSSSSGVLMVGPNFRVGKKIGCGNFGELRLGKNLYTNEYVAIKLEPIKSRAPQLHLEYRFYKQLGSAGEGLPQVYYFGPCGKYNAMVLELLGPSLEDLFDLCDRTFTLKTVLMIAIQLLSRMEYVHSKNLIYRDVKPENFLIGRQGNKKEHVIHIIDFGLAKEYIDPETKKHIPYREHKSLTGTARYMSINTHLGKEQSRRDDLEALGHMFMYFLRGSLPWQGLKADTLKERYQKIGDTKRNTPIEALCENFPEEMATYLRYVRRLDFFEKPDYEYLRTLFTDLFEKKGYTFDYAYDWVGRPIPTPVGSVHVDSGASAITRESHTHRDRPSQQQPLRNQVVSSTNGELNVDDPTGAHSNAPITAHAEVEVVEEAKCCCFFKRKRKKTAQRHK
# [14] = molecular target: 468 kinases including some pathogenic mutants (Homo sapiens, UniProt P36888); settings: FLT3-autoinhibited (Entrez FLT3), 100 nM; read-out: Percent Control
# [15] = molecular target: 468 kinases including some pathogenic mutants (Homo sapiens, UniProt Q14164); settings: IKK-epsilon (Entrez IKBKE), 100 nM; read-out: Percent Control
# [16] = molecular target: 468 kinases including some pathogenic mutants (Homo sapiens, UniProt P51451); settings: BLK (Entrez BLK), 100 nM; read-out: Percent Control
# [17] = molecular target: 468 kinases including some pathogenic mutants (Homo sapiens, UniProt Q9UM73, L1196M); settings: read-out: Percent Control
# Chain of 468 kinases including some pathogenic mutants (Homo sapiens, UniProt Q9UM73, L1196M) (Q9UM73 19-1620 L1196M): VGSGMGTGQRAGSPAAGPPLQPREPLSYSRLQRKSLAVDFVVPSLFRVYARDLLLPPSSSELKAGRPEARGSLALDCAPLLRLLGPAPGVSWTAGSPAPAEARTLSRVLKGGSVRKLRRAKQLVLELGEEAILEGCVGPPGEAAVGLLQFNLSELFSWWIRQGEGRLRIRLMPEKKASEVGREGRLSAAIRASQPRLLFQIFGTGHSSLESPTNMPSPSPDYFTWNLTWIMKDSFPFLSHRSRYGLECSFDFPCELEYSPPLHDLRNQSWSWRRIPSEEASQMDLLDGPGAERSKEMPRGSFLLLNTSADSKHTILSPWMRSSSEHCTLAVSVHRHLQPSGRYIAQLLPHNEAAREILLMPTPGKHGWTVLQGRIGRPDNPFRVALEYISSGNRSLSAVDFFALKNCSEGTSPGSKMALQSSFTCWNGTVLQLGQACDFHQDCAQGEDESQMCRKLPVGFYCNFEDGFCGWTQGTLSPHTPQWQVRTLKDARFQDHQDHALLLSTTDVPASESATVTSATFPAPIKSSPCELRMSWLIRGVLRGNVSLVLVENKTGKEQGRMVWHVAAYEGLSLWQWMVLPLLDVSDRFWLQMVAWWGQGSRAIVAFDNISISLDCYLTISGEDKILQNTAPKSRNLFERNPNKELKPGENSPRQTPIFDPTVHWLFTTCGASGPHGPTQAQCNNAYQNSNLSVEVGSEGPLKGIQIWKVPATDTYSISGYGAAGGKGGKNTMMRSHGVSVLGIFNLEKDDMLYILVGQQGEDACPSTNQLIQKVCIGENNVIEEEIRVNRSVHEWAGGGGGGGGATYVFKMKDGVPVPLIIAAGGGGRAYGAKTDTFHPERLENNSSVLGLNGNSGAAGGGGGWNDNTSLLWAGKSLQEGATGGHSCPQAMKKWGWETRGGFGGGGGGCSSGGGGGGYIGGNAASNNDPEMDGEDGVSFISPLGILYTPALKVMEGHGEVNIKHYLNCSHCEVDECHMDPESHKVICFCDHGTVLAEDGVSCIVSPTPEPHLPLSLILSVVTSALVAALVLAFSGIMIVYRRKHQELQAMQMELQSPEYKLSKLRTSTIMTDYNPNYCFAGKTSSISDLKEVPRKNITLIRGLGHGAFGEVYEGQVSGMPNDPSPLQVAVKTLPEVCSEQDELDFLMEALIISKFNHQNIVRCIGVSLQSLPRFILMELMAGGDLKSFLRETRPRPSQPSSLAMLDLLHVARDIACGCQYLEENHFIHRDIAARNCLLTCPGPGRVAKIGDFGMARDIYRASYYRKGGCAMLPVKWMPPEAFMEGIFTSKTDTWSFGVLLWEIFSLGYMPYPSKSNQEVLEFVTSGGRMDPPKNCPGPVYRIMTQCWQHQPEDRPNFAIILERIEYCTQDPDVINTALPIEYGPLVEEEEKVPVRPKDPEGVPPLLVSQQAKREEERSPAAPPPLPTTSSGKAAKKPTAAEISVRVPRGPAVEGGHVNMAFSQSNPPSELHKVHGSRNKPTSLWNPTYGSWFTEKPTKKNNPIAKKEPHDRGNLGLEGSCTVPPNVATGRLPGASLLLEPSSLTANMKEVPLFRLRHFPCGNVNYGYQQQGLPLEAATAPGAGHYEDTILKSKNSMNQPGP
# [18] = molecular target: 468 kinases including some pathogenic mutants (Homo sapiens, UniProt O43318); settings: TAK1 (Entrez MAP3K7), 100 nM; read-out: Percent Control
# [19] = molecular target: 468 kinases including some pathogenic mutants (Homo sapiens, UniProt Q99759); settings: MAP3K3 (Entrez MAP3K3), 100 nM; read-out: Percent Control
# [20] = molecular target: 468 kinases including some pathogenic mutants (Homo sapiens, UniProt P35590); settings: TIE1 (Entrez TIE1), 100 nM; read-out: Percent Control
# [21] = molecular target: 468 kinases including some pathogenic mutants (Homo sapiens, UniProt P16234); settings: PDGFRA (Entrez PDGFRA), 100 nM; read-out: Percent Control
# Chain of 468 kinases including some pathogenic mutants (Homo sapiens, UniProt P16234) (P16234 24-1089, change not shown): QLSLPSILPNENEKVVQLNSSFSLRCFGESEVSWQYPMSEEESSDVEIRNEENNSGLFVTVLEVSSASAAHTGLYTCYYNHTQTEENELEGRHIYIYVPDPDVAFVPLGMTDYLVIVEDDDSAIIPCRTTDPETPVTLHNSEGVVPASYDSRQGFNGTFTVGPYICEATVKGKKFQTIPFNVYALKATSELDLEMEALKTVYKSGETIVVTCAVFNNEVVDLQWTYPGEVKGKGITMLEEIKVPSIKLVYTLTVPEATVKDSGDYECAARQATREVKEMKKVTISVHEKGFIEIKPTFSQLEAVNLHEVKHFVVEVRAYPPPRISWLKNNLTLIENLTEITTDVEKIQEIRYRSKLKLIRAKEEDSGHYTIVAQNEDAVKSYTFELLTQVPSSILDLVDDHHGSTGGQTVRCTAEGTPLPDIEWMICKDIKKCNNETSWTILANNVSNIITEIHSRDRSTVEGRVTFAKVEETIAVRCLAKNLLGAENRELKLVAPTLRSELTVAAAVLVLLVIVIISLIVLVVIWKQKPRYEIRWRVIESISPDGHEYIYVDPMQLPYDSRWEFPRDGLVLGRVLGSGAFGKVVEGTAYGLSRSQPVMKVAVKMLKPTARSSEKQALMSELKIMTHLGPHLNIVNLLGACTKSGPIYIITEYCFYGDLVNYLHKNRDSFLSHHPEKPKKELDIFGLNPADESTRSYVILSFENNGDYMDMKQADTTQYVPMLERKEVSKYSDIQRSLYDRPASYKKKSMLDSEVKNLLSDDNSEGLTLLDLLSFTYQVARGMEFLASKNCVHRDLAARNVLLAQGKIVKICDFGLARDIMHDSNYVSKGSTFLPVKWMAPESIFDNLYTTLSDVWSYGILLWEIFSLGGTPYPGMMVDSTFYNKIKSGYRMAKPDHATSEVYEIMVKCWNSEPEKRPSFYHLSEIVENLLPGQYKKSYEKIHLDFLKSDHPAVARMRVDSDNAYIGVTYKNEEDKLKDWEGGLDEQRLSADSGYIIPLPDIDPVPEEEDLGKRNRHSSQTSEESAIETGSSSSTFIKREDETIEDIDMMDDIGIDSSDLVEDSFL
# [22] = molecular target: 468 kinases including some pathogenic mutants (Homo sapiens, UniProt P51956); settings: NEK3 (Entrez NEK3), 100 nM; read-out: Percent Control
# [23] = molecular target: 468 kinases including some pathogenic mutants (Homo sapiens, UniProt Q9NSY1); settings: BIKE (Entrez BMP2K), 100 nM; read-out: Percent Control
# [24] = molecular target: 468 kinases including some pathogenic mutants (Homo sapiens, UniProt Q96NX5); settings: CAMK1G (Entrez CAMK1G), 100 nM; read-out: Percent Control
# [25] = molecular target: 468 kinases including some pathogenic mutants (Homo sapiens, UniProt P00533, L861Q); settings: read-out: Percent Control
# [26] = molecular target: 468 kinases including some pathogenic mutants (Homo sapiens, UniProt Q6PHR2); settings: ULK3 (Entrez ULK3), 100 nM; read-out: Percent Control
# [27] = molecular target: 468 kinases including some pathogenic mutants (Homo sapiens, UniProt Q59H18); settings: TNNI3K (Entrez TNNI3K), 100 nM; read-out: Percent Control
# [28] = molecular target: 468 kinases including some pathogenic mutants (Homo sapiens, UniProt O60331); settings: PIP5K1C (Entrez PIP5K1C), 1000 nM; read-out: Percent Control
# [29] = molecular target: 468 kinases including some pathogenic mutants (Homo sapiens, UniProt P07949, V804L); settings: read-out: Percent Control
smiles,measurement,setting,value
"CN1C(=O)[C@@H](N2CCc3c(nn(Cc4ccccc4)c3C(N)=O)C2=O)COc2cc(Cl)ccc21 [Compound 10, (S)-2-benzyl-6-(8-chloro-5-methyl-4-oxo-2,3,4,5-tetrahydrobenzo[b][1,4]oxazepin-3-yl)-7-oxo-4,5,6,7-tetrahydro-2H-pyrazolo[3,4-c]pyridine-3-carboxamide]",remaining activity at 1 µM,[1],100%
same,remaining activity at 1 µM,[2]; RSK1(Kin.Dom.1-N-terminal) (Entrez RPS6KA1),100%
same,remaining activity at 1 µM,[2]; RSK1(Kin.Dom.2-C-terminal) (Entrez RPS6KA1),100%
same,remaining activity at 0.1 µM,[3],82%
same,remaining activity at 1 µM,[4],100%
same,remaining activity at 0.1 µM,[5],82%
same,remaining activity at 1 µM,[6],100%
same,remaining activity at 1 µM,[7],100%
same,remaining activity at 0.1 µM,[8],85%
same,remaining activity at 1 µM,[9],100%
same,remaining activity at 0.1 µM,[10],62%
same,remaining activity at 0.1 µM,[11],79%
same,remaining activity at 1 µM,[12],100%
same,remaining activity at 0.1 µM,[13],80%
same,remaining activity at 0.1 µM,[14],84%
same,remaining activity at 0.1 µM,[15],61%
same,remaining activity at 0.1 µM,[16],84%
same,remaining activity at 0.1 µM,[17],89%
same,remaining activity at 0.1 µM,[18],100%
same,remaining activity at 0.1 µM,[19],66%
same,remaining activity at 0.1 µM,[20],68%
same,remaining activity at 0.1 µM,[21],89%
same,remaining activity at 0.1 µM,[22],100%
same,remaining activity at 0.1 µM,[23],67%
same,remaining activity at 0.1 µM,[24],72%
same,remaining activity at 0.1 µM,[25],100%
same,remaining activity at 0.1 µM,[26],100%
same,remaining activity at 0.1 µM,[27],82%
same,remaining activity at 1 µM,[28],100%
same,remaining activity at 1 µM,[29],100%
